Test results from paper PMC9963656, “Synthesis, Molecular Docking, and Bioactivity Study of Novel Hybrid Benzimidazole Urea Derivatives: A Promising α-Amylase and α-Glucosidase Inhibitor Candidate with Antioxidant Activity” (Pharmaceutics, 2023).

What was measured:
[1] = Ferric reducing antioxidant power (FRAP) assay; details: for FRAP: ferric reducing antioxidant power: compound 1 mM, 593 nm
Procedure: The FRAP reagent is a 1:1:10 mixture of TPTZ (2,4,6-Tris(2-pyridyl)-S-triazine, 10 mM prepared in 40 mM HCl), FeCl3.6H2O (20 mM), and acetate buffer (300 mM, pH 3.6). Accurately, 0.1 mL of the samples (final concentration 1 mM in DMSO) was thoroughly mixed with 2 mL of the FRAP reagent and incubated at room temperature for 30 min. At 593 nm, the absorbance was measured. The compounds FRAP activity was calculated using the FRAP-trolox calibration curve in trolox equivalent.

α-amylase = α-amylase (Aspergillus oryzae, UniProt P0C1B3); experiment: biochemical; details: triplicate values; read-out: α-Amylase Inhibition IC50 ± SEM
Procedure: The α-amylase inhibition activity was measured using the previously reported methodologies. An amount of 500 μL of test sample ([…]) and 500 μL of […] α-amylase (source: Aspergillus oryzae) solution (0.5 mg/mL) in […] phosphate buffer (pH 6.9) were incubated for 10 min at 25 °C. Following pre-incubation, 500 μL of 1% starch solution in 0.02 M sodium phosphate buffer (pH 6.9) was added and incubated for 10 min at 25 °C. An amount of 1 mL of dinitro salicylic acid color reagent was used to stop the reaction. The tubes were then placed in boiling water for 5 min before being cooled to room temperature. After diluting the solutions with 10 mL of distilled water, the absorbance at 540 nm was measured. […] The percentage of enzyme inhibition was calculated using the following equation:(1) % of Enzyme Inhibition=(Absorbance of control – Absorbance of compound)×100 /Absorbance of control

[2] = Iron chelating activity assay (MCA); details: for MCA: metal chelating activity: compound 1 mM, 562 nm
Procedure: Using the method of Zengin et al. with modification, the ability of compounds to chelate iron compared to the EDTA was estimated. To inchoate the color, a compound solution in DMSO ([…] a final concentration of 1 mM) plus ferrous chloride (25 μL, 2 mM, FeCl2) was added to 100 μL of ferrozine. At 562 nm, the absorbance of the mixture was measured in comparison to a blank (prepared similarly to a test without ferrozine). The chelating activity of the extract was calculated in equivalents to the EDTA standard calibration curve.

α-glucosidase = target: T1, α-glucosidase (Saccharomyces cerevisiae, UniProt P53341); experiment: biochemical; details: triplicate values; read-out: α-Glucosidase Inhibition IC50 ± SEM
T1 construct: purchased Sigma-Aldrich
Procedure: The inhibition of α-glucosidase activity was measured using a modified version of a previously published method. In 100 mL of phosphate buffer (pH 6.8) containing 200 mg of bovine serum albumin, one milligram of α-glucosidase (Saccharomyces cerevisiae, Sigma-Aldrich, St. Louis, MO, USA) was dissolved (Merck, Darmstadt, Germany). The reaction mixture was made up of 10 μL of sample at various concentrations ([…]), 490 μL of phosphate buffer pH 6.8, and 250 μL of 5 mM p-nitrophenyl-D-glucopyranoside (Sigma-Aldrich, Buchs, Switzerland). After a 5 min preincubation at 37 °C, 250 μL of α-glucosidase (0.15 unit/mL) was added and incubated at 37 °C for 15 min. The reaction was stopped by adding 2000 μL Na2CO3 200 mM. α-glucosidase activity was measured using a spectrophotometer UV-Vis (Shimadzu 265, Kyoto, Japan) at 400 nm by measuring the amount of p-nitrophenol released from p-NPG. […] Equation (1) was used to calculate the percentage of inhibition.

[3] = Total antioxidant capacity (TAC), molybdate reduction; details: for TAC: total antioxidant capacity: compound 1 mM in DMSO, 695 nm
Procedure: An amount of 2 mL of freshly prepared 0.6 M solution of sulfuric acid, a solution of ammonium molybdate (4 mM), and a buffer solution of sodium phosphate (28 mM) were placed in small glass test tubes and thoroughly mixed with the compound solution (200 μL in DMSO with a concentration of 1 mM). An amount of 2 mL of molybdate reagent was mixed with 200 μL of distilled water to make a blank test. The cylinders were warmed to 85 °C for 1.5 h before cooling to ambient temperature. At 695 nm, the produced blue color was assessed with a UV spectrophotometer, with the blank reading having to serve as the auto-zero point. The TAC results were calculated using the Trolox standard calibration curve.

[4] = DPPH scavenging activity (DPPH-SA); details: for DPPH-SA: 2,2-diphenyl-1-picrylhydrazyl scavenging activity: compound 1 mM, 517 nm
Procedure: The ability of the compounds to scavenge free radicals was tested against DPPH-stable free radicals. The degree of reduction in the DPPH violet color is directly proportional to the scavenging efficacy of the compounds. According to the method of Aroua et al., 1 mL of the DMSO solutions of the tested compounds (1 mM final concentration) was thoroughly mixed in test tubes with the DPPH solution prepared at the concentration of 300 µM in methanol. After 30 min at room temperature, the reduction in DPPH-violet color was measured at 517 nm. The DPPH-SA of the compounds was calculated using the DPPH-Trolox calibration curve.

T1 sequence (P53341 whole entry): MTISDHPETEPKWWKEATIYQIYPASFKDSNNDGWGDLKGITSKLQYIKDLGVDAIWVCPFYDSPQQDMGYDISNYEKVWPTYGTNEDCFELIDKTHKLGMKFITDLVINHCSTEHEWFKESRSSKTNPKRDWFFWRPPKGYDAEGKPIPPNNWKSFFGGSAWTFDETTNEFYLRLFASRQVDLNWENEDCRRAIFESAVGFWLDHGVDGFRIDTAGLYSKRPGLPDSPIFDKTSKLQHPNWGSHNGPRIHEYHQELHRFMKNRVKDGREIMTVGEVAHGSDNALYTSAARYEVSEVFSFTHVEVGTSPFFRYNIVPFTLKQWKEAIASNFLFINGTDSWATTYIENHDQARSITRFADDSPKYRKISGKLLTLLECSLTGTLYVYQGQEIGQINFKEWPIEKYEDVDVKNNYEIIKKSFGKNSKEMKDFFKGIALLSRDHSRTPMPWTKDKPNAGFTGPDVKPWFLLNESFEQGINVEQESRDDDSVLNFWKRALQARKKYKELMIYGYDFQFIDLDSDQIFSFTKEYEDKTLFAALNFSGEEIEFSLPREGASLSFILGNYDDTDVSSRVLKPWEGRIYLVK

SMILES | melting point [°C] | IC50 (α-amylase) [µM] | IC50 (α-glucosidase) [µM] | FRAP: ferric reducing antioxidant power [1] | MCA: metal chelating activity [2] | TAC: total antioxidant capacity [3] | DPPH-SA: 2,2-diphenyl-1-picrylhydrazyl scavenging activity [4] | total antioxidant capacity (TAC), molybdenum (VI) reducing activity [3] [mM trolox equivalents] | ferric reducing antioxidant power (FRAP) [1] [mM trolox equivalents] | DPPH-SA [4] [mM trolox equivalents] | metal chelating activity (MCA) [2] [mM EDTA equivalents]
O=C(Nc1ccccc1)Nc1ccccc1-c1nc2ccccc2[nH]1 [3a, 1-(2-(1H-benzo[d]imidazol-2-yl)phenyl)-3-phenylurea] | 129 to 131 | 40.7 ± 0.06 | 42.97 ± 0.19 | 6.53 ± 0.03 trolox equivalent per 1 mM of the compounds | 1.62 ± 0.10 EDTA equivalent per 1 mM of the compounds | 1.33 ± 0.46 trolox equivalent per 1 mM of the compounds | 1.17 ± 0.07 trolox equivalent per 1 mM of the compounds |  |  |  | 
O=C(Nc1ccccc1-c1nc2ccccc2[nH]1)Nc1cccc2ccccc12 [3b, 1-(2-(1H-benzo[d]imidazol-2-yl)phenyl)-3-(naphthalen-1-yl)urea] | 203 to 205 | 41.7 ± 0.06 | 45.97 ± 0.19 | 9.25 ± 0.20 trolox equivalent per 1 mM of the compounds | 1.55 ± 0.07 EDTA equivalent per 1 mM of the compounds | 5.16 ± 0.69 trolox equivalent per 1 mM of the compounds | 0.96 ± 0.06 trolox equivalent per 1 mM of the compounds | 5.16 ± 0.69 |  |  | 
O=C(Nc1ccccc1-c1nc2ccccc2[nH]1)NC1CCCCC1 [3d, 1-(2-(1H-benzo[d]imidazol-2-yl)phenyl)-3-cyclohexylurea] | 330 to 332 | 25.65 ± 0.03 | 27.47 ± 0.13 | 5.67 ± 0.69 trolox equivalent per 1 mM of the compounds | 1.46 ± 0.10 EDTA equivalent per 1 mM of the compounds | 2.47 ± 0.42 trolox equivalent per 1 mM of the compounds | 2.89 ± 1.07 trolox equivalent per 1 mM of the compounds |  |  | 2.89 ± 1.07 | 
CCCCNC(=O)Nc1ccccc1-c1nc2ccccc2[nH]1 [3f, 1-(2-(1H-benzo[d]imidazol-2-yl)phenyl)-3-butylurea] | 196 to 198 | 28.33 ± 0.02 | 29.01 ± 0.12 | 5.99 ± 0.02 trolox equivalent per 1 mM of the compounds | 1.40 ± 0.07 EDTA equivalent per 1 mM of the compounds | 8.50 ± 0.87 trolox equivalent per 1 mM of the compounds | 1.55 ± 0.03 trolox equivalent per 1 mM of the compounds | 8.50 ± 0.87 |  |  | 
O=C(NCC1CCC(CNC(=O)Nc2ccccc2-c2nc3ccccc3[nH]2)CC1)Nc1ccccc1-c1nc2ccccc2[nH]1 (centres unmarked) [3h, 1,1′-(cyclohexane-1,4-diylbis(methylene))bis(3-(2-(1H-benzo[d]imidazol-2-yl)phenyl)urea)] | 190 to 192 | 43.04 ± 0.02 | 44.99 ± 0.09 | 6.79 ± 0.50 trolox equivalent per 1 mM of the compounds | 2.95 ± 0.21 EDTA equivalent per 1 mM of the compounds | 2.25 ± 0.65 trolox equivalent per 1 mM of the compounds | 1.09 ± 0.03 trolox equivalent per 1 mM of the compounds |  |  |  | 2.95 ± 0.21

Stronger by IC50 (α-amylase), values ahead:

melting point [°C] | IC50 (α-amylase) [µM] | IC50 (α-glucosidase) [µM] | SMILES | FRAP: ferric reducing antioxidant power [1] | MCA: metal chelating activity [2] | TAC: total antioxidant capacity [3] | DPPH-SA: 2,2-diphenyl-1-picrylhydrazyl scavenging activity [4] | total antioxidant capacity (TAC), molybdenum (VI) reducing activity [3] [mM trolox equivalents] | ferric reducing antioxidant power (FRAP) [1] [mM trolox equivalents] | DPPH-SA [4] [mM trolox equivalents] | metal chelating activity (MCA) [2] [mM EDTA equivalents]
190 to 192 | 22.33 ± 0.12 | 23.01 ± 0.12 | O=C(Nc1ccc(NC(=O)Nc2ccccc2-c2nc3ccccc3[nH]2)cc1)Nc1ccccc1-c1nc2ccccc2[nH]1 [3g, 1,1’-(1,4-phenylene)bis(3-(2-(1H-benzo[d]imidazol-2-yl)phenyl)urea)] | 16.12 ± 0.29 trolox equivalent per 1 mM of the compounds | 1.36 ± 0.09 EDTA equivalent per 1 mM of the compounds | 10.06 ± 1.51 trolox equivalent per 1 mM of the compounds | 3.86 ± 0.04 trolox equivalent per 1 mM of the compounds | 10.06 ± 1.51 | 16.12 ± 0.29 | 3.86 ± 0.04 | 
196 to 198 | 20.7 ± 0.06 | 21.97 ± 0.19 | CC(C)NC(=O)Nc1ccccc1-c1nc2ccccc2[nH]1 [3e, 1-(2-(1H-benzo[d]imidazol-2-yl)phenyl)-3-isopropylurea] | 2.75 ± 0.15 trolox equivalent per 1 mM of the compounds | 1.47 ± 0.09 EDTA equivalent per 1 mM of the compounds | 2.52 ± 0.80 trolox equivalent per 1 mM of the compounds | 1.70 ± 0.01 trolox equivalent per 1 mM of the compounds |  |  |  | 
197 to 199 | 18.7 ± 0.23 | 17.47 ± 0.03 | COc1ccc(NC(=O)Nc2ccccc2-c2nc3ccccc3[nH]2)cc1 [3c, 1-(2-(1H-benzo[d]imidazol-2-yl)phenyl)-3-(4-methoxyphenyl)urea] | 8.65 ± 0.29 trolox equivalent per 1 mM of the compounds | 1.55 ± 0.22 EDTA equivalent per 1 mM of the compounds | 4.43 ± 0.53 trolox equivalent per 1 mM of the compounds | 1.61 ± 0.02 trolox equivalent per 1 mM of the compounds | 4.43 ± 0.53 | 8.65 ± 0.29 |  | 
